From US20220401440A1, “DOSING REGIMENS FOR A PROTEIN KINASE C INHIBITOR” (IDEAYA BIOSCIENCES, INC., priority 2019, published 2022)
Several values for one entry are separate records, joined by “and”; a condition that tells them apart may be missing. Equal entries are not always repeated. Where two headings read alike, the source gives them in different places.

Assay: Phase 1/2 study: plasma pharmacokinetics of Compound (I) in patients (LC-MS/MS, non-compartmental analysis)
Format: in vivo, human
Description: The following example presents a phase 1/2 study of Compound (I) in patients with solid tumors harboring GNAQ/11 mutations or PRKC fusions.
Patients with MUM were sequentially enrolled into Cohort 1 or Cohort 2. Enrollment into Cohort 2 was not initiated until enrollment into Cohort 1 was completed and the dose considered safe. • a. Cohort 1. 6 patients were sequentially enrolled and received 300 mg twice a day (BID), daily, for 28-day treatment cycles. • b. Cohort 2. 6 patients were sequentially enrolled and received 400 mg BID, preceded by an initial 7-day 200 mg BID run-in period, for 28-day treatment cycles. All patients continue to receive treatment with Compound (I) unless the subject experiences one or more of the following: • Adverse event • Lost to follow-up • Physician decision • Progressive disease • Study termination by the Sponsor • Patient/guardian decision • Protocol deviation • Non-compliance with protocol • Death • Pregnancy NUMBER OF SUBJECTS: 12 patients
The following example presents pharmacokinetic results from the study as described in Example 1.
Blood samples were collected on Cycle 1 Day 1 and Day 15 from patients who were administered 300 mg BID of Compound (I), and on Cycle 1 Day 8 and Day 22 from patients who were administered 200 mg BID for 7 days followed by 400 mg BID of Compound (I) for the remainder of the treatment cycle. The plasma samples were processed by protein precipitation (see Ahuja S and Dong M. W, Handbook of Pharmaceutical Analysis by HPLC, Elsevier Inc., Chapter 17, page 433, 2005) and analyzed using an LC-MS/MS method; Quantification was achieved using Compound (I) peak area to internal standard (3-amino-N-(3-(4-amino-4-(methyl-d3)piperidin-1-yl)pyridin-2-yl)-6-(3-(trifluoromethyl)pyridin-2-yl)pyrazine-2-carboxamide) peak area ratios. Concentrations of the calibration curve standards, quality control samples, and patient samples were determined by the method of 1/x^2 weighted least squares linear regression.
The Pharmacokinetic parameters were calculated using Phoenix WinNonlin software (non-compartmental analysis).

[1] = individual patients, 300 mg BID
[2] = individual patients, 300 mg BID, C1 Day 1
[3] = individual patients, 300 mg BID, C1 Day 15
[4] = individual patients, 400 mg BID with 200 mg run-in
[5] = individual patients, 400 mg BID with 200 mg run-in, C1 Day 8
[6] = individual patients, 400 mg BID with 200 mg run-in, C1 Day 22

Structure (SMILES): CC1(N)CCN(c2cccnc2NC(=O)c2nc(-c3ncccc3C(F)(F)F)cnc2N)CC1 [Compound (I), 3-amino-N-(3-(4-amino-4-methylpiperidin-1-yl)pyridin-2-yl)-6-(3-(trifluoromethyl)pyridin-2-yl)pyrazine-2-carboxamide]
- Free AUC0-12 (mean free plasma) (400 mg BID with 200 mg run-in): 396 ± 222 ng·h/mL
- Cmin (400 mg BID with 200 mg run-in, Cycle 1 Day 22, mean ± SD, n = 24): 1120 ± 806 ng/mL
- Race (400 mg BID with 200 mg run-in, mean ± SD, n = 24): 0.97 ± 0.29
- mean exposure on C1D8 (200 mg BID 7 days then 400 mg BID) compared to C1D1 of 300 mg BID (human, in vivo): lower mean exposure
- mean free plasma AUC0-12, higher at 400 mg BID with 200 mg run-in than at 300 mg BID (human, in vivo): about 44%
- AUC(0-t) (human, plasma, oral, 300 mg, 300 mg BID, Cycle 1 Day 1, mean ± SD, n = 12, read-out: AUC0-12): 26200 ± 11100 ng·h/mL
- Cmax (human, plasma, oral, 300 mg, 300 mg BID, Cycle 1 Day 1, mean ± SD, n = 12, read-out: Cmax): 4600 ± 2300 ng/mL
- AUC(0-t) (human, plasma, oral, 300 mg, 300 mg BID, Cycle 1 Day 15, mean ± SD, n = 12, read-out: AUC0-12): 16800 ± 5380 ng·h/mL
- Cmax (human, plasma, oral, 300 mg, 300 mg BID, Cycle 1 Day 15, mean ± SD, n = 12, read-out: Cmax): 2860 ± 690 ng/mL
- AUC(0-t) (human, plasma, oral, 300 mg, individual patient 10001-00022, 300 mg BID, C1 Day 1 (footnote a: AUC0-8), read-out: AUC0-8): 35900 ng·h/mL
- AUC(0-t) (human, plasma, oral, 400 mg BID, 400 mg BID with 200 mg run-in, Cycle 1 Day 8, mean ± SD, n = 24, read-out: AUC0-12): 24400 ± 12100 ng·h/mL
- Cmax (human, plasma, oral, 400 mg BID, 400 mg BID with 200 mg run-in, Cycle 1 Day 8, mean ± SD, n = 24, read-out: Cmax): 3930 ± 1880 ng/mL
- AUC(0-t) (human, plasma, oral, 400 mg BID, 400 mg BID with 200 mg run-in, Cycle 1 Day 22, mean ± SD, n = 24, read-out: AUC0-12): 21500 ± 10800 ng·h/mL
- Cmax (human, plasma, oral, 400 mg BID, 400 mg BID with 200 mg run-in, Cycle 1 Day 22, mean ± SD, n = 24, read-out: Cmax): 3580 ± 1390 ng/mL
- AUC ratio D15/D1 [1]: 0.83 and 0.87 and 1.53 and 0.67 and 1.1 and 0.66 (2×) and 0.44 and 0.51 and 0.41 and 0.62 and 1.22 and 0.61
- Cmin on C1D15 [1]: 645 ng/mL and 626 ng/mL and 175 ng/mL and 792 ng/mL and 1075 ng/mL and 1212 ng/mL and 1088 ng/mL and 798 ng/mL and 322 ng/mL and 1337 ng/mL and 1549 ng/mL and 715 ng/mL and 699 ng/mL
- AUC0-12 [2]: 22974 ng·h/mL and 17983 ng·h/mL and 3597 ng·h/mL and 22480 ng·h/mL and 19439 ng·h/mL and 43190 ng·h/mL and 35321 ng·h/mL and 26969 ng·h/mL and 39949 ng·h/mL and 233274 ng·h/mL and 26345 ng·h/mL and 19768 ng·h/mL
- Cmax [2]: 3159 ng/mL and 2980 ng/mL and 607 ng/mL and 3147 ng/mL and 4367 ng/mL and 8940 ng/mL and 7009 ng/mL and 5386 ng/mL and 6252 ng/mL and 5549 ng/mL and 3866 ng/mL and 5523 ng/mL and 2256 ng/mL
- Tmax [2]: 4 h and 2 h and 1 h and 0.5 h
- AUC0-12 [3]: 19049 ng·h/mL and 15640 ng·h/mL and 5511 ng·h/mL and 15071 ng·h/mL and 21194 ng·h/mL and 23600 ng·h/mL and 19185 ng·h/mL and 17909 ng·h/mL and 10949 ng·h/mL and 24582 ng·h/mL and 28493 ng·h/mL and 16155 ng·h/mL and 13083 ng·h/mL
- Cmax [3]: 3965 ng/mL and 2149 ng/mL and 1392 ng/mL and 3079 ng/mL and 2984 ng/mL and 3442 ng/mL and 2782 ng/mL and 2574 ng/mL and 2969 ng/mL and 3618 ng/mL and 4203 ng/mL and 2348 ng/mL and 2971 ng/mL
- Tmax [3]: 0.5 h and 1 h and 2 h
- AUC ratio D22/D8 [4]: 1.3 (3×) and 1.1 (2×) and 0.84 and 0.66 and 0.75 and 1.0 (3×) and 0.85 and 0.95 and 0.59 and 0.88 and 1.5 and 0.42 and 1.2 and 0.64 and 0.70 and 1.4
- Cmin on C1D22 [4]: 1019 ng/mL and 969 ng/mL and 931 ng/mL and 497 ng/mL and 533 ng/mL and 674 ng/mL and 916 ng/mL and 777 ng/mL and 179 ng/mL and 1631 ng/mL and 334 ng/mL and 1110 ng/mL and 264 ng/mL and 3140 ng/mL and 1082 ng/mL and 1887 ng/mL and 478 ng/mL and 1912 ng/mL and 1592 ng/mL and 2909 ng/mL and 677 ng/mL
- AUC0-12 [5]: 17779 ng·h/mL and 19720 ng·h/mL and 22367 ng·h/mL and 23416 ng·h/mL and 16365 ng·h/mL and 28796 ng·h/mL and 13072 ng·h/mL and 56156 ng·h/mL and 22089 ng·h/mL and 23178 ng·h/mL and 18745 ng·h/mL and 6311 ng·h/mL and 38119 ng·h/mL and 13309 ng·h/mL and 22361 ng·h/mL and 10348 ng·h/mL and 32689 ng·h/mL and 48672 ng·h/mL and 23856 ng·h/mL and 17650 ng·h/mL and 43163 ng·h/mL and 23378 ng·h/mL and 30601 ng·h/mL and 13604 ng·h/mL
- Cmax [5]: 2068 ng/mL and 2948 ng/mL and 2077 ng/mL and 7600 ng/mL and 2121 ng/mL and 2580 ng/mL and 1949 ng/mL and 7450 ng/mL and 3838 ng/mL and 6560 ng/mL and 4478 ng/mL and 1922 ng/mL and 6872 ng/mL and 4037 ng/mL and 2949 ng/mL and 2603 ng/mL and 3474 ng/mL and 7043 ng/mL and 2520 ng/mL and 2531 ng/mL and 4952 ng/mL and 4452 ng/mL and 4329 ng/mL and 3053 ng/mL
- Tmax [5]: 2 h and 1 h and 6 h and 0.5 h and 4 h
- AUC0-12 [6]: 22282 ng·h/mL and 21010 ng·h/mL and 18847 ng·h/mL and 15424 ng·h/mL and 12278 ng·h/mL and 13221 ng·h/mL and 18705 ng·h/mL and 20068 ng·h/mL and 6604 ng·h/mL and 36219 ng·h/mL and 7788 ng·h/mL and 19634 ng·h/mL and 10656 ng·h/mL and 48381 ng·h/mL and 20635 ng·h/mL and 28583 ng·h/mL and 11327 ng·h/mL and 30027 ng·h/mL and 32888 ng·h/mL and 38889 ng·h/mL and 18178 ng·h/mL
- Cmax [6]: 2556 ng/mL and 2756 ng/mL and 1709 ng/mL and 5026 ng/mL and 2562 ng/mL and 1911 ng/mL and 2853 ng/mL and 2578 ng/mL and 5948 ng/mL and 2203 ng/mL and 2403 ng/mL and 1992 ng/mL and 5663 ng/mL and 5314 ng/mL and 3276 ng/mL and 4296 ng/mL and 5657 ng/mL and 5617 ng/mL and 3676 ng/mL and 3890 ng/mL
- Tmax [6]: 2 h and 1 h and 6 h and 0.5 h and 4 h
- mean Cmin at steady state, higher at 400 mg BID (with 200 mg run-in) than at 300 mg BID (steady state): ~40%
- mean steady state exposure (200 mg BID 7 days then 400 mg BID) vs 300 mg BID (steady state): higher mean steady state exposure
